In PubChem BioAssay (NCI):
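Five concentrations, 48 hours, 96-well plates. TGI is the concentration that stops growth completely.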

Tests used:
Test in all cases: DTP human tumour cell line panel, 48 h
LOX IMVI melanoma = system: LOX IMVI melanoma
OVCAR-3 ovarian = system: OVCAR-3 ovarian
SR leukemia = system: SR leukemia
SN12C renal = system: SN12C renal
NCI-H460 lung = system: NCI-H460 lung
IGROV1 ovarian = system: IGROV1 ovarian
ACHN renal = system: ACHN renal
M14 melanoma = system: M14 melanoma
SF-268 CNS = system: SF-268 CNS
HT29 colon = system: HT29 colon
OVCAR-8 ovarian = system: OVCAR-8 ovarian
HCC-2998 colon = system: HCC-2998 colon
SW-620 colon = system: SW-620 colon
NCI-H522 lung = system: NCI-H522 lung
SF-295 CNS = system: SF-295 CNS
T-47D breast = system: T-47D breast
HS 578T breast = system: HS 578T breast
HOP-62 NSCLC = system: HOP-62 NSCLC
CCRF-CEM leukemia = system: CCRF-CEM leukemia
OVCAR-5 ovarian = system: OVCAR-5 ovarian
SNB-75 CNS = system: SNB-75 CNS
COLO 205 colon = system: COLO 205 colon
PC-3 prostate = system: PC-3 prostate
786-0 renal = system: 786-0 renal
SK-MEL-2 melanoma = system: SK-MEL-2 melanoma
MCF7 breast = system: MCF7 breast
A549 NSCLC = system: A549 NSCLC
BT-549 breast = system: BT-549 breast
TK-10 renal = system: TK-10 renal
SK-OV-3 ovarian = system: SK-OV-3 ovarian
EKVX NSCLC = system: EKVX NSCLC
CAKI-1 renal = system: CAKI-1 renal
U251 CNS = system: U251 CNS
UACC-257 melanoma = system: UACC-257 melanoma
MOLT-4 leukemia = system: MOLT-4 leukemia
UO-31 renal = system: UO-31 renal
MALME-3M melanoma = system: MALME-3M melanoma
MDA-MB-231 breast = system: MDA-MB-231 breast
HL-60(TB) leukemia = system: HL-60(TB) leukemia
HOP-92 NSCLC = system: HOP-92 NSCLC
UACC-62 melanoma = system: UACC-62 melanoma
MDA-MB-435 = system: MDA-MB-435
MDA-N = system: MDA-N
SNB-19 CNS = system: SNB-19 CNS
HCT-116 colon = system: HCT-116 colon
OVCAR-4 ovarian = system: OVCAR-4 ovarian
SK-MEL-28 melanoma = system: SK-MEL-28 melanoma
NCI-H23 lung = system: NCI-H23 lung
DU-145 prostate = system: DU-145 prostate
K-562 leukemia = system: K-562 leukemia
HCT-15 colon = system: HCT-15 colon
RXF 393 renal = system: RXF 393 renal
SK-MEL-5 melanoma = system: SK-MEL-5 melanoma
KM12 colon = system: KM12 colon
NCI/ADR-RES ovarian = system: NCI/ADR-RES ovarian
RPMI-8226 leukemia = system: RPMI-8226 leukemia
NCI-H226 lung = system: NCI-H226 lung
A498 renal = system: A498 renal
SF-539 CNS = system: SF-539 CNS

## COc1ccc2c(c1OC(C)=O)C1=CC(=O)CCC13CCNC3C2 (configuration not stated)
LOX IMVI melanoma
  TGI: > 100 µM
OVCAR-3 ovarian
  TGI: > 100 µM
SR leukemia
  TGI: > 100 µM
SN12C renal
  TGI: > 100 µM
NCI-H460 lung
  TGI: > 100 µM
IGROV1 ovarian
  TGI: > 100 µM
ACHN renal
  TGI: > 100 µM
M14 melanoma
  TGI: > 100 µM
SF-268 CNS
  TGI: > 100 µM
HT29 colon
  TGI: > 100 µM
OVCAR-8 ovarian
  TGI: > 100 µM
HCC-2998 colon
  TGI: > 100 µM
SW-620 colon
  TGI: > 100 µM
NCI-H522 lung
  TGI: > 100 µM
SF-295 CNS
  TGI: > 100 µM
T-47D breast
  TGI: > 100 µM
HS 578T breast
  TGI: > 100 µM
HOP-62 NSCLC
  TGI: > 100 µM
CCRF-CEM leukemia
  TGI: > 100 µM
OVCAR-5 ovarian
  TGI: > 100 µM
SNB-75 CNS
  TGI: > 100 µM
COLO 205 colon
  TGI: > 100 µM
PC-3 prostate
  TGI: > 100 µM
786-0 renal
  TGI: > 100 µM
SK-MEL-2 melanoma
  TGI: > 100 µM
MCF7 breast
  TGI: > 100 µM
A549 NSCLC
  TGI: > 100 µM
BT-549 breast
  TGI: > 100 µM
TK-10 renal
  TGI: > 100 µM
SK-OV-3 ovarian
  TGI: > 100 µM
EKVX NSCLC
  TGI: > 100 µM
CAKI-1 renal
  TGI: > 100 µM
U251 CNS
  TGI: > 100 µM
UACC-257 melanoma
  TGI: > 100 µM
MOLT-4 leukemia
  TGI: > 100 µM
UO-31 renal
  TGI: > 100 µM
MALME-3M melanoma
  TGI: > 100 µM
MDA-MB-231 breast
  TGI: > 100 µM
HL-60(TB) leukemia
  TGI: > 100 µM
HOP-92 NSCLC
  TGI: > 100 µM
UACC-62 melanoma
  TGI: > 100 µM
MDA-MB-435
  TGI: > 100 µM
MDA-N
  TGI: > 100 µM
SNB-19 CNS
  TGI: > 100 µM
HCT-116 colon
  TGI: > 100 µM
OVCAR-4 ovarian
  TGI: > 100 µM
SK-MEL-28 melanoma
  TGI: > 100 µM
NCI-H23 lung
  TGI: > 100 µM
DU-145 prostate
  TGI: > 100 µM
K-562 leukemia
  TGI: > 100 µM
HCT-15 colon
  TGI: > 100 µM
RXF 393 renal
  TGI: > 100 µM
SK-MEL-5 melanoma
  TGI: > 100 µM
KM12 colon
  TGI: > 100 µM
NCI/ADR-RES ovarian
  TGI: > 100 µM
RPMI-8226 leukemia
  TGI: > 100 µM
NCI-H226 lung
  TGI: > 100 µM

## Cc1c(F)c(NC(=O)CN(C)C)c2c(=O)cc(-c3ccc(NC(=O)CN(C)C)c(F)c3)oc2c1F
LOX IMVI melanoma
  TGI: 30.9 µM
A498 renal
  TGI: 3.64 µM
SR leukemia
  TGI: 6.15 µM
SN12C renal
  TGI: 36.3 µM
NCI-H460 lung
  TGI: 29 µM
IGROV1 ovarian
  TGI: 32.1 µM
ACHN renal
  TGI: 29.6 µM
M14 melanoma
  TGI: 31.7 µM
SF-268 CNS
  TGI: 38.3 µM
HT29 colon
  TGI: 33.8 µM
OVCAR-8 ovarian
  TGI: 37.5 µM
HCC-2998 colon
  TGI: 19 µM
SW-620 colon
  TGI: 46.9 µM
NCI-H522 lung
  TGI: 41.4 µM
SF-295 CNS
  TGI: 28.9 µM
T-47D breast
  TGI: 55.8 µM
HS 578T breast
  TGI: 56.5 µM
HOP-62 NSCLC
  TGI: 32.5 µM
CCRF-CEM leukemia
  TGI: 57 µM
OVCAR-5 ovarian
  TGI: 41.1 µM
COLO 205 colon
  TGI: 38 µM
PC-3 prostate
  TGI: 33.8 µM
786-0 renal
  TGI: 31.1 µM
SK-MEL-2 melanoma
  TGI: 37.1 µM
MCF7 breast
  TGI: 28.3 µM
A549 NSCLC
  TGI: 35.6 µM
BT-549 breast
  TGI: 35.3 µM
TK-10 renal
  TGI: 23.4 µM
SK-OV-3 ovarian
  TGI: 30.5 µM
CAKI-1 renal
  TGI: 23.1 µM
U251 CNS
  TGI: 27.2 µM
UACC-257 melanoma
  TGI: 48.1 µM
MOLT-4 leukemia
  TGI: 31.9 µM
UO-31 renal
  TGI: 26.9 µM
MALME-3M melanoma
  TGI: 45.9 µM
MDA-MB-231 breast
  TGI: 26.9 µM
HL-60(TB) leukemia
  TGI: 35.9 µM
UACC-62 melanoma
  TGI: 34.8 µM
MDA-MB-435
  TGI: 26.5 µM
MDA-N
  TGI: 34 µM
SNB-19 CNS
  TGI: 41.2 µM
HCT-116 colon
  TGI: 29.3 µM
OVCAR-4 ovarian
  TGI: 37.6 µM
SK-MEL-28 melanoma
  TGI: 40.9 µM
SF-539 CNS
  TGI: 31.2 µM
NCI-H23 lung
  TGI: 36.1 µM
DU-145 prostate
  TGI: 26.5 µM
K-562 leukemia
  TGI: 37.5 µM
HCT-15 colon
  TGI: 33.7 µM
RXF 393 renal
  TGI: 25.6 µM
SK-MEL-5 melanoma
  TGI: 30.6 µM
KM12 colon
  TGI: 30.5 µM
NCI/ADR-RES ovarian
  TGI: 39.6 µM
RPMI-8226 leukemia
  TGI: 38.9 µM
NCI-H226 lung
  TGI: 29.2 µM
